Consider three compounds from patent US20160137685A1, “NUCLEOSIDE PHOSPHORAMIDATES AND PHOSPHORAMIDITES” (priority 2013, published 2016).

The conditions of data set [1]: healthy volunteers, single ascending doses up to 800 mg once daily; cited from earlier work.
In data set [2] the test system is HEPG2 hepatic cancer cells. Put plainly: MTT cell viability assay, HEPG2 hepatic cancer cells. Format: cell-based. To be noted: 72 hours, 1.0-20 μM, calculated with Compusyn software. The procedure: FIG. 2. Floxphosteridine and floxuridine anticancer activity in vitro against HEPG2 hepatic cancer cells. HEPG2 hepatic cancer cells were treated with various concentrations (1.0 μM-20 μM) of floxphosteridine and floxuridine for 72 hours, and cell viability was evaluated with MTT cell viability assay.
(§1) We treated three cancer cell lines with various concentrations of Floxphosteridine (compound Ic) and floxuridine for 72 hours. The structure of floxuridine is shown below:
(§2) The SK-HEP-1 and HEPG2 cell lines used in these experiments represent in vitro models for hepatic cancer. The AGS cancer cell line is an in vitro model for gastric cancer.
In FIG. 2, the two compounds were tested for anticancer activity against HEPG2 hepatic cancer cells. The cells were treated with various concentrations (1.0-20 μM) of floxphosteridine and floxuridine for 72 hours, and cell viability was evaluated with the MTT assay.

Data set [3] concerns SK-HEP-1 hepatic cancer cells. Briefly: MTT cell viability assay, SK-HEP-1 hepatic cancer cells. The conditions noted are these: 72 hours, 0.01-20 μM, calculated with Compusyn software. Format: cell-based. As for the experimental part: FIG. 1. Floxphosteridine and floxuridine anticancer activity in vitro against SK-HEP-1 hepatic cancer cells. SK-HEP-1 hepatic cancer cells were treated with various concentrations (0.01 μM-20 μM) of floxphosteridine and floxuridine for 72 hours, and cell viability was evaluated with MTT cell viability assay.
as §1, §2
In FIG. 1, SK-HEP-1 hepatic cancer cells were treated with various concentrations (0.01-20 μM) of floxphosteridine and floxuridine for 72 hours, and cell viability was evaluated with the MTT assay.

A further data set deals with AGS gastric cancer cells. Briefly: MTT cell viability assay, AGS gastric cancer cells. Type of data set: cell-based. To be noted: 72 hours, 1.0-20 μM (0.01-20 μM), calculated with Compusyn software. As for the experimental part:
FIG. 3. Floxphosteridine and floxuridine anticancer activity in vitro against AGS gastric cancer cells. AGS gastric cancer cells were treated with various concentrations (0.01 μM-20 μM) of floxphosteridine and floxuridine for 72 hours, and cell viability was evaluated with MTT cell viability assay.
as §1, §2
In FIG. 3, the two compounds were tested for anticancer activity against AGS gastric cancer cells. The cells were treated with various concentrations (1.0-20 μM) of floxphosteridine and floxuridine for 72 hours, and cell viability was evaluated with the MTT assay.

With `CC(C)OC(=O)[C@H](C)N[P@](=O)(OC[C@H]1O[C@@H](n2ccc(=O)[nH]c2=O)[C@](C)(F)[C@@H]1O)Oc1ccccc1` (racemic) [PSI-7851], in data set [1], the safety and tolerability entry was “generally safe and well tolerated, with no dose-limiting toxicities”; the “systemic exposure profile (pharmacokinetic results)” value is “rapid uptake of the drug by the liver and low plasma exposure to the prodrug PSI-7851”.

In the case of `CC(C)OC(=O)[C@H](C)N[P@](=O)(OC[C@H]1O[C@@H](n2cc(F)c(=O)[nH]c2=O)C[C@@H]1O)Oc1ccccc1` [floxphosteridine], the IC50 in data set [2] (Homo sapiens) was 13.3 µM; in data set [3] (Homo sapiens, SK-HEP1, SK-HEP-1 cells), 31.7 µM; in the data set with AGS gastric cancer cells (Homo sapiens), 7.26 µM.

floxuridine: the concentration for half-maximal inhibition (IC50) was 10.4 µM in data set [2], 0.8 µM in data set [3] (SK-HEP-1 cells) and 5.71 µM in the data set on AGS gastric cancer cells.

One may read the IC50 as the midpoint of a concentration-inhibition curve.
